Laboratory results published in patent US8088817B2, “Pyrrole derivative having, as substituents, ureido group, aminocarbonly group and bicyclic group which may have substituent” (Santen Pharmaceutical Co., Ltd., priority 2008, dated 2012).

What follows are molecules tested on TNF-α-induced IL-6 production in normal human skin fibroblast-derived CCD-1059Sk cells (assay: Test for measurement of inhibitory activity against TNF-α-induced IL-6 production in CCD-1059Sk cells (HTRF Human IL-6 kit)). Details: test compound at 10 μM; TNF-α-stimulated CCD-1059Sk cells, 16 hours; inhibition ratio which is 100% or more is indicated to be 100%.
Format: cell-based
Protocol: 1. Test for Measurement of Inhibitory Activity Against IL-6 Production
An inhibitory effect on TNF-α-induced IL-6 production in normal human skin fibroblast-derived CCD-1059Sk cells (ATCC No. CRL-2072) was evaluated. The amount of IL-6 was determined by the homogeneous time-resolved fluorescence method using HTRF™ Human IL-6 kit (Cat. No. 62IL6PEB, manufactured by CIS-Bio international, Inc.). Specific test methods will be described below.
(Preparation of Test Compound Solution)
After a test compound was dissolved in dimethyl sulfoxide, the resulting solution was diluted with D-MEM medium containing 0.1% heat-inactivated fetal bovine serum, 0.1 mM MEM non-essential amino acid solution, 100 U/mL penicillin and 100 μg/mL streptomycin (hereinafter referred to as “medium”), whereby a 40 μM test compound solution was prepared.
(Test Method and Measurement Method)
1) CCD-1059Sk cells prepared at a density of 3×10^5 cells/mL were inoculated in a 384-well plate in an amount of 10 μL per well such that the cell density was 3×10^3 cells/well.
2) After the plate was incubated at 37° C. for several hours in a CO2 incubator, 5 μL of the test compound solution was added to each well.
3) After the plate was incubated at 37° C. for 1 hour in a CO2 incubator, 5 μL of a 40 ng/mL TNF-α solution was added to each well.
4) After the plate was incubated at 37° C. for 16 hours in a CO2 incubator, 10 μL of a cryptate-labeled anti-IL-6 antibody and an XL665-labeled anti-IL-6 antibody containing potassium fluoride were added to each well.
5) After the plate was incubated at room temperature for several hours, a fluorescence intensity ratio (665 nm/620 nm) was determined for each well using a multimode plate reader Analyst™ HT (manufactured by Molecular Device Corporation) and Criterion Host software version 2.00 (manufactured by Molecular Device Corporation), and then, the amount of IL-6 was calculated.
6) The same procedures as in the above 1) to 5) were performed except that 0.4% dimethyl sulfoxide was added in place of the test compound, and the obtained result was designated as the control.
7) The same procedures as in the above 1) to 5) were performed except that 0.4% dimethyl sulfoxide and the medium were added in place of the test compound and the TNF-α solution, respectively, and the obtained result was designated as the background.
(Calculation Formula of IL-6 Production Inhibition Ratio)
An IL-6 production inhibition ratio (%) was calculated from the following equation. IL-6 Production Inhibition Ratio(%)=100×{1−[(Amount of IL-6 for Test Compound)−(Amount of IL-6 for Background)]/[(Amount of IL-6 for Control)−(Amount of IL-6 for Background)]} (Evaluation Results)

SMILES | IL-6 production inhibition ratio (%)
NC(=O)Nc1[nH]c(-c2ccc3ccccc3c2)cc1C(N)=O [Compound No. 1-1, 2-Aminocarbonylamino-5-(2-naphthyl)pyrrole-3-carboxamide] | 90%
NC(=O)Nc1[nH]c(-c2cc3ccccc3o2)cc1C(N)=O [Compound No. 1-5, 2-Aminocarbonylamino-5-(benzofuran-2-yl)pyrrole-3-carboxamide] | 98%
NC(=O)Nc1[nH]c(-c2ccc3sccc3c2)cc1C(N)=O [Compound No. 1-6, 2-Aminocarbonylamino-5-(benzothiophen-5-yl)pyrrole-3-carboxamide] | 95%
NC(=O)Nc1[nH]c(-c2ccc3occc3c2)cc1C(N)=O [Compound No. 1-8, 2-Aminocarbonylamino-5-(benzofuran-5-yl)pyrrole-3-carboxamide] | 86%
NC(=O)Nc1[nH]c(-c2cccc3c2OCCO3)cc1C(N)=O [Compound No. 1-12, 2-Aminocarbonylamino-5-(2,3-dihydro-1,4-benzodioxin-5-yl)pyrrole-3-carboxamide] | 97%
Cc1c(-c2cc(C(N)=O)c(NC(N)=O)[nH]2)sc2ccccc12 [Compound No. 1-15, 2-Aminocarbonylamino-5-(3-methylbenzothiophen-2-yl)pyrrole-3-carboxamide] | 98%
NC(=O)Nc1[nH]c(-c2cccc3c2OCC3)cc1C(N)=O [Compound No. 3-1, 2-Aminocarbonylamino-5-(2,3-dihydrobenzofuran-7)pyrrole-3-carboxamide] | ≥ 100%
